Measurements from ChEMBL document CHEMBL4765379, “Synthesis and biological evaluation of diaryl urea derivatives designed as potential anticarcinoma agents using de novo structure-based lead optimization approach” (Eur J Med Chem, 2020).
Values belong to the compound of their own block, whether it stands above or below them. Calls of active or inactive are those of the source. The calls are words filed in the database; no cut-off is given here.

Assays:
A549 = test: Antiproliferative activity against human A549 cells assessed as reduction in cell growth incubated for 48 hrs by MTT assay; format: functional, cell-based; conditions: A549, 48 h
HT-29 [1] = test: Antiproliferative activity against human HT-29 cells assessed as reduction in cell growth incubated for 48 hrs by MTT assay; format: functional, cell-based; conditions: HT-29, 48 h
HT-29 [2] = test: Induction of apoptosis in human HT-29 cells assessed as necrotic cells at 15 uM incubated for 48 hrs by annexin V-FITC and PI staining based flow cytometry analysis (reference value: 9.68 %); format: functional
HT-29 [3] = test: Induction of cell cycle arrest in human HT-29 cells assessed as S phase accumulation at 15 uM incubated for 48 hrs by PI staining based flow cytometry analysis (reference value: 36.98 %); format: functional
HT-29 [4] = test: Induction of cell cycle arrest in human HT-29 cells assessed as G1 phase accumulation at 15 uM incubated for 48 hrs by PI staining based flow cytometry analysis (reference value: 56.39 %); format: functional
HT-29 [5] = test: Induction of apoptosis in human HT-29 cells assessed as early apoptotic cells at 15 uM incubated for 48 hrs by annexin V-FITC and PI staining based flow cytometry analysis (reference value: 1.01 %); format: functional
HT-29 [6] = test: Induction of cell cycle arrest in human HT-29 cells assessed as subG1 phase accumulation at 15 uM incubated for 48 hrs by PI staining based flow cytometry analysis (reference value: 0.06 %); format: functional
HT-29 [7] = test: Induction of cell cycle arrest in human HT-29 cells assessed as G2 phase accumulation at 15 uM incubated for 48 hrs by PI staining based flow cytometry analysis (reference value: 11.7 %); format: functional
HT-29 [8] = test: Induction of apoptosis in human HT-29 cells assessed as viable cells at 15 uM incubated for 48 hrs by annexin V-FITC and PI staining based flow cytometry analysis (reference value: 88.2 %); format: functional; conditions: read-out: Activity
HT-29 [9] = test: Induction of apoptosis in human HT-29 cells assessed as increase in ratio of Bax/Bcl2 at 1 to 10 uM incubated for 48 hrs by Western blot analysis; format: functional, cell-based; conditions: dose 1-10 µM
HT-29 [10] = test: Induction of apoptosis in human HT-29 cells assessed as upregulation of Bax expression at 1 to 10 uM incubated for 48 hrs by Western blot analysis; format: functional, cell-based; conditions: dose 1-10 µM
[11] = molecular target: Vascular endothelial growth factor receptor 2 (Homo sapiens) (UniProt P35968); test: Inhibition of VEGFR2 in human HT-29 cells assessed as reduction in VEGFR2 phosphorylation incubated for 48 hrs by Western blot analysis; format: cell-based; conditions: dose 1-10 µM
Vascular endothelial growth factor receptor 2 (Homo sapiens), sequence (P35968 whole entry): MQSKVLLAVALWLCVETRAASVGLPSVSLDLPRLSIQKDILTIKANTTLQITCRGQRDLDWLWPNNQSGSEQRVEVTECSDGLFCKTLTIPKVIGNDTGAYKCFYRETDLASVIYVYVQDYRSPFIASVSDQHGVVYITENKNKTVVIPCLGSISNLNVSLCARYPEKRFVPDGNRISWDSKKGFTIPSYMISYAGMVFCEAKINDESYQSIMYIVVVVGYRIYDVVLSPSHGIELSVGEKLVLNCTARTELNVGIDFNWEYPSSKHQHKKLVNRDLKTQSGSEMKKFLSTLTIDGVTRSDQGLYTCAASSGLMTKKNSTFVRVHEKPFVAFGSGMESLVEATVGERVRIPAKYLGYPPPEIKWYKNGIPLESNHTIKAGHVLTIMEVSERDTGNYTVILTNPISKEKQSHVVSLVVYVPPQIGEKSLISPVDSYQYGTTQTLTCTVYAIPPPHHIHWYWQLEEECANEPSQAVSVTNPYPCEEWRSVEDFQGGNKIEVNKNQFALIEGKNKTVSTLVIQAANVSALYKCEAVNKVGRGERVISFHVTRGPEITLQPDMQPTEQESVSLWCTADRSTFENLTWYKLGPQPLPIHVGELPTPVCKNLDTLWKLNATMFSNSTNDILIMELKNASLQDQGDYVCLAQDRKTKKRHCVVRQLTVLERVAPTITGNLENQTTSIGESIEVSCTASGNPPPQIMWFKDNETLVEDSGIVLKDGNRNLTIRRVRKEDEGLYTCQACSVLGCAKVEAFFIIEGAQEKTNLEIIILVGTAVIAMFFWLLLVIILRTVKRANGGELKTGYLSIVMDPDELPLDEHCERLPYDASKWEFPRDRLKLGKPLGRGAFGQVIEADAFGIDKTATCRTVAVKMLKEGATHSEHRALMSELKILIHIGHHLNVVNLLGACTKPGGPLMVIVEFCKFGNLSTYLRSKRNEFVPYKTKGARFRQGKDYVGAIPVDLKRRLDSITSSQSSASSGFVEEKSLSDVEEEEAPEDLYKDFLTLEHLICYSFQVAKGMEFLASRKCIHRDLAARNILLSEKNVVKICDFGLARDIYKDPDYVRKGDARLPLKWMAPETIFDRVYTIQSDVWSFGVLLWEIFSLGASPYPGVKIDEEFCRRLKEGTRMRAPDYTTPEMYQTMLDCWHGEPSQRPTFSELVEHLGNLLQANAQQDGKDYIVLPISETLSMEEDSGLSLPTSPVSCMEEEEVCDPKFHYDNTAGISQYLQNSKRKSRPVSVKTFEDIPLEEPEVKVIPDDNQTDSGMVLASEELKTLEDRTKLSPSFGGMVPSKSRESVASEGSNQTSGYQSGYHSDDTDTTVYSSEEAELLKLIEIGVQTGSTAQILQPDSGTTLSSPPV

HT-29 [12] = test: Induction of cell cycle arrest in human HT-29 cells assessed as reduction in CDK4 level incubated for 48 hrs by Western blot analysis; format: functional, cell-based; conditions: dose 1-10 µM
HT-29 [13] = test: Induction of apoptosis in human HT-29 cells assessed as early apoptotic cells incubated for 48 hrs by annexin V-FITC and PI staining based flow cytometry analysis; format: functional, cell-based; conditions: dose 1-10 µM
HT-29 [14] = test: Induction of apoptosis in human HT-29 cells assessed as viable cells at 1 uM incubated for 48 hrs by annexin V-FITC and PI staining based flow cytometry analysis (reference value: 88.2 %); format: functional; conditions: read-out: Activity
HT-29 [15] = test: Induction of apoptosis in human HT-29 cells assessed as early apoptotic cells at 5 uM incubated for 48 hrs by annexin V-FITC and PI staining based flow cytometry analysis (reference value: 1.01 %); format: functional
HT-29 [16] = test: Induction of apoptosis in human HT-29 cells assessed as late apoptotic cells at 10 uM incubated for 48 hrs by annexin V-FITC and PI staining based flow cytometry analysis (reference value: 1.08 %); format: functional
HT-29 [17] = test: Induction of apoptosis in human HT-29 cells assessed as downregulation of Bcl2 expression at 1 to 10 uM incubated for 48 hrs by Western blot analysis; format: functional, cell-based; conditions: dose 1-10 µM
HT-29 [18] = test: Induction of apoptosis in human HT-29 cells assessed as viable cells at 10 uM incubated for 48 hrs by annexin V-FITC and PI staining based flow cytometry analysis (reference value: 88.2 %); format: functional; conditions: read-out: Activity
HT-29 [19] = test: Induction of cell cycle arrest in human HT-29 cells assessed as subG1 phase accumulation at 10 uM incubated for 48 hrs by PI staining based flow cytometry analysis (reference value: 0.06 %); format: functional
HT-29 [20] = test: Induction of cell cycle arrest in human HT-29 cells assessed as G1 phase accumulation at 5 uM incubated for 48 hrs by PI staining based flow cytometry analysis (reference value: 56.39 %); format: functional
HT-29 [21] = test: Induction of apoptosis in human HT-29 cells assessed as necrotic cells at 1 uM incubated for 48 hrs by annexin V-FITC and PI staining based flow cytometry analysis (reference value: 9.68 %); format: functional
HT-29 [22] = test: Induction of apoptosis in human HT-29 cells assessed as viable cells at 5 uM incubated for 48 hrs by annexin V-FITC and PI staining based flow cytometry analysis (reference value: 88.2 %); format: functional; conditions: read-out: Activity
HT-29 [23] = test: Induction of apoptosis in human HT-29 cells assessed as late apoptotic cells at 1 uM incubated for 48 hrs by annexin V-FITC and PI staining based flow cytometry analysis (reference value: 1.08 %); format: functional
[24] = molecular target: Vascular endothelial growth factor receptor 2 (Homo sapiens) (UniProt P35968); test: Inhibition of VEGFR2 in human HT-29 cells assessed as reduction in c-Raf expression incubated for 48 hrs by Western blot analysis; format: cell-based; conditions: dose 1-10 µM
HT-29 [25] = test: Induction of cell cycle arrest in human HT-29 cells assessed as subG1 phase accumulation at 5 uM incubated for 48 hrs by PI staining based flow cytometry analysis (reference value: 0.06 %); format: functional
HT-29 [26] = test: Induction of cell cycle arrest in human HT-29 cells assessed as G2 phase accumulation at 10 uM incubated for 48 hrs by PI staining based flow cytometry analysis (reference value: 11.7 %); format: functional
[27] = molecular target: Vascular endothelial growth factor receptor 2 (Homo sapiens) (UniProt P35968); test: Inhibition of VEGFR2 in human HT-29 cells assessed as reduction in ERK1/2 expression incubated for 48 hrs by Western blot analysis; format: cell-based; conditions: dose 1-10 µM
HT-29 [28] = test: Induction of cell cycle arrest in human HT-29 cells assessed as G1 phase accumulation at 10 uM incubated for 48 hrs by PI staining based flow cytometry analysis (reference value: 56.39 %); format: functional
HT-29 [29] = test: Induction of apoptosis in human HT-29 cells assessed as late apoptotic cells incubated for 48 hrs by annexin V-FITC and PI staining based flow cytometry analysis; format: functional, cell-based; conditions: dose 1-10 µM
HT-29 [30] = test: Induction of cell cycle arrest in human HT-29 cells assessed as S phase accumulation at 10 uM incubated for 48 hrs by PI staining based flow cytometry analysis (reference value: 36.98 %); format: functional
HT-29 [31] = test: Induction of cell cycle arrest in human HT-29 cells assessed as G1 phase accumulation at 1 uM incubated for 48 hrs by PI staining based flow cytometry analysis (reference value: 56.39 %); format: functional
HT-29 [32] = test: Induction of cell cycle arrest in human HT-29 cells assessed as S phase accumulation at 5 uM incubated for 48 hrs by PI staining based flow cytometry analysis (reference value: 36.98 %); format: functional
HT-29 [33] = test: Induction of cell cycle arrest in human HT-29 cells assessed as S phase accumulation at 1 uM incubated for 48 hrs by PI staining based flow cytometry analysis (reference value: 36.98 %); format: functional
HT-29 [34] = test: Induction of cell cycle arrest in human HT-29 cells assessed as G2 phase accumulation at 1 uM incubated for 48 hrs by PI staining based flow cytometry analysis (reference value: 11.7 %); format: functional
[35] = molecular target: Vascular endothelial growth factor receptor 2 (Homo sapiens) (UniProt P35968); test: Inhibition of VEGFR2 in human HT-29 cells assessed as reduction in MEK expression incubated for 48 hrs by Western blot analysis; format: cell-based; conditions: dose 1-10 µM
HT-29 [36] = test: Induction of apoptosis in human HT-29 cells assessed as early apoptotic cells at 1 uM incubated for 48 hrs by annexin V-FITC and PI staining based flow cytometry analysis (reference value: 1.01 %); format: functional
HT-29 [37] = test: Induction of apoptosis in human HT-29 cells assessed as late apoptotic cells at 5 uM incubated for 48 hrs by annexin V-FITC and PI staining based flow cytometry analysis (reference value: 1.08 %); format: functional
HT-29 [38] = test: Induction of cell cycle arrest in human HT-29 cells assessed as G2 phase accumulation at 5 uM incubated for 48 hrs by PI staining based flow cytometry analysis (reference value: 11.7 %); format: functional
HT-29 [39] = test: Induction of cell cycle arrest in human HT-29 cells assessed as reduction in cyclin D1 level incubated for 48 hrs by Western blot analysis; format: functional, cell-based; conditions: dose 1-10 µM
HT-29 [40] = test: Induction of ROS accumulation in human HT-29 cells at 1 to 10 uM incubated for 12 hrs by […] and DAPI staining based luminescence spectrometer; format: functional, cell-based; conditions: dose 1-10 µM
HT-29 [41] = test: Induction of cell cycle arrest in human HT-29 cells assessed as subG1 phase accumulation at 1 uM incubated for 48 hrs by PI staining based flow cytometry analysis (reference value: 0.06 %); format: functional
HT-29 [42] = test: Induction of apoptosis in human HT-29 cells assessed as early apoptotic cells at 10 uM incubated for 48 hrs by annexin V-FITC and PI staining based flow cytometry analysis (reference value: 1.01 %); format: functional
HT-29 [43] = test: Induction of apoptosis in human HT-29 cells assessed as necrotic cells at 10 uM incubated for 48 hrs by annexin V-FITC and PI staining based flow cytometry analysis (reference value: 9.68 %); format: functional
HT-29 [44] = test: Induction of apoptosis in human HT-29 cells assessed as necrotic cells at 5 uM incubated for 48 hrs by annexin V-FITC and PI staining based flow cytometry analysis (reference value: 9.68 %); format: functional
[45] = molecular target: Vascular endothelial growth factor receptor 2 (Homo sapiens) (UniProt P35968); test: Inhibition of VEGFR2 in human HT-29 cells assessed as reduction in ERK1/2 phosphorylation incubated for 48 hrs by Western blot analysis; format: cell-based; conditions: dose 1-10 µM
HT-29 [46] = test: Induction of apoptosis in human HT-29 cells assessed as increase in caspase3 expression incubated for 48 hrs by Western blot analysis; format: functional, cell-based; conditions: dose 1-10 µM

IC50 (A549): 5.62 µM | IC50 (HT-29 [1]): 17.3 µM
SMILES: CNC(=O)c1cc(Oc2ccc(NC(=O)Nc3ccc(Cl)c(C(F)(F)F)c3)cc2)ccn1 [SORAFENIB]
Activity (HT-29 [2]): 8.72% | Activity (HT-29 [3]): 12.19% | Activity (HT-29 [4]): 75.23% | Activity (HT-29 [5]): 5.76% | Activity (HT-29 [6]): 1.69% | Activity (HT-29 [7]): 14.54% | viability at 15 µM (HT-29 [8]): 81.3%

IC50 (A549): 6.62 µM | IC50 (HT-29 [1]): 8.32 µM
SMILES: O=C(Nc1ccc(OC(=O)c2ccc(Cl)cc2)cc1)Nc1ccc(Cl)c(C(F)(F)F)c1

IC50 (A549): 16.1 µM | IC50 (HT-29 [1]): 33.8 µM
SMILES: COc1ccc(C(=O)Oc2ccc(NC(=O)Nc3ccc(Cl)c(C(F)(F)F)c3)cc2)cc1

IC50 (A549): 60.2 µM | IC50 (HT-29 [1]): 175 µM
SMILES: COc1ccc(C(=O)Oc2ccc(NC(=O)Nc3ccccc3)cc2)cc1

The next lines start with the compound.

SMILES: Cc1ccc(C(=O)Oc2ccc(NC(=O)Nc3ccccc3)cc2)cc1
IC50 (A549): 18.9 µM | IC50 (HT-29 [1]): 19.9 µM

SMILES: O=C(Nc1ccccc1)Nc1ccc(OC(=O)c2ccc(F)cc2)cc1
IC50 (A549): 38.5 µM | IC50 (HT-29 [1]): 128 µM

SMILES: CC(=O)c1cccc(NC(=O)Nc2ccc(OC(=O)c3cc4cc([N+](=O)[O-])ccc4s3)cc2)c1
IC50 (A549): 61.5 µM | IC50 (HT-29 [1]): 457 µM

SMILES: O=C(Cc1ccccc1)Nc1ccc(NC(=O)Nc2ccccc2)cc1
Activity (HT-29 [9]): Active | Activity (HT-29 [10]): Active | inhibition [11]: Dose-dependent effect | Activity (HT-29 [12]): Dose-dependent effect | Activity (HT-29 [13]): Dose-dependent effect | viability at 1 µM (HT-29 [14]): 82.4% | Activity (HT-29 [15]): 3.09% | Activity (HT-29 [16]): 5.46% | Activity (HT-29 [17]): Active | viability at 10 µM (HT-29 [18]): 85.6% | Activity (HT-29 [19]): 3.45% | Activity (HT-29 [20]): 63.44% | Activity (HT-29 [21]): 14.2% | viability at 5 µM (HT-29 [22]): 86.8% | Activity (HT-29 [23]): 1.93% | inhibition [24]: Dose-dependent effect | Activity (HT-29 [25]): 7.45% | Activity (HT-29 [26]): 27.49% | inhibition [27]: Dose-dependent effect | Activity (HT-29 [28]): 60.9% | IC50 (A549): 0.63 µM | IC50 (HT-29 [1]): 3.38 µM | Activity (HT-29 [29]): Dose-dependent effect | Activity (HT-29 [30]): 15.84% | Activity (HT-29 [31]): 61.96% | Activity (HT-29 [32]): 18.48% | Activity (HT-29 [33]): 29.67% | Activity (HT-29 [34]): 11.64% | inhibition [35]: Dose-dependent effect | Activity (HT-29 [36]): 1.46% | Activity (HT-29 [37]): 2.18% | Activity (HT-29 [38]): 18.18% | Activity (HT-29 [39]): Dose-dependent effect | Activity (HT-29 [40]): Active | Activity (HT-29 [41]): 0.43% | Activity (HT-29 [42]): 2.22% | Activity (HT-29 [43]): 6.75% | Activity (HT-29 [44]): 7.95% | inhibition [45]: Dose-dependent effect | Activity (HT-29 [46]): Dose-dependent effect
